Source: PMC4042160, “In silico, in vitro and cellular analysis with a kinome-wide inhibitor panel correlates cellular LRRK2 dephosphorylation to inhibitor activity on LRRK2” (Frontiers in Molecular Neuroscience, 2014)
Several values for one entry are separate records, joined by “and”; a condition that tells them apart may be missing. Identical values can stand only once.

Assays:
[1] = biological target: T1, GST-tagged truncated LRRK2 containing residues 970 to 2527 (Homo sapiens, UniProt Q5S007); assay: In vitro LRRKtide peptide-substrate kinase assay, single dose testing (10 μM); assay type: biochemical; details: for % LRRKtide phosphorylation relative to solvent: LRRKtide assay @ 10 μM inhibitor, GST-LRRK2 970-2527, 10 μM ATP, mean, N = 3, solvent control = 100%; for activity on LRRK2 kinase activity in vitro (in words): no activity at 10 μM
T1 construct: GST-tagged truncated LRRK2 containing residues 970 to 2527 (Life Technologies); purchased Life Technologies

LRRK2 phospho-Ser935 = biological target: T2, LRRK2 phospho-Ser935 (Homo sapiens, UniProt Q5S007); assay: Cellular LRRK2 phosphoserine 935 dephosphorylation spotblot assay in SH-SY5Y cells stably expressing 3xFlag-LRRK2; assay type: cell-based; details: for Phosphorylation level relative to solvent (%) (cellular pS935 assay): @ 5 μM for 2 h, SH-SY5Y stably expressing LRRK2, pS935/total LRRK2; for dephosphorylation of LRRK2 (Ser935): 5 μM, 2 h, SH-SY5Y
T2 construct: expressed in transfected cells
T2 sequence (Q5S007 whole entry): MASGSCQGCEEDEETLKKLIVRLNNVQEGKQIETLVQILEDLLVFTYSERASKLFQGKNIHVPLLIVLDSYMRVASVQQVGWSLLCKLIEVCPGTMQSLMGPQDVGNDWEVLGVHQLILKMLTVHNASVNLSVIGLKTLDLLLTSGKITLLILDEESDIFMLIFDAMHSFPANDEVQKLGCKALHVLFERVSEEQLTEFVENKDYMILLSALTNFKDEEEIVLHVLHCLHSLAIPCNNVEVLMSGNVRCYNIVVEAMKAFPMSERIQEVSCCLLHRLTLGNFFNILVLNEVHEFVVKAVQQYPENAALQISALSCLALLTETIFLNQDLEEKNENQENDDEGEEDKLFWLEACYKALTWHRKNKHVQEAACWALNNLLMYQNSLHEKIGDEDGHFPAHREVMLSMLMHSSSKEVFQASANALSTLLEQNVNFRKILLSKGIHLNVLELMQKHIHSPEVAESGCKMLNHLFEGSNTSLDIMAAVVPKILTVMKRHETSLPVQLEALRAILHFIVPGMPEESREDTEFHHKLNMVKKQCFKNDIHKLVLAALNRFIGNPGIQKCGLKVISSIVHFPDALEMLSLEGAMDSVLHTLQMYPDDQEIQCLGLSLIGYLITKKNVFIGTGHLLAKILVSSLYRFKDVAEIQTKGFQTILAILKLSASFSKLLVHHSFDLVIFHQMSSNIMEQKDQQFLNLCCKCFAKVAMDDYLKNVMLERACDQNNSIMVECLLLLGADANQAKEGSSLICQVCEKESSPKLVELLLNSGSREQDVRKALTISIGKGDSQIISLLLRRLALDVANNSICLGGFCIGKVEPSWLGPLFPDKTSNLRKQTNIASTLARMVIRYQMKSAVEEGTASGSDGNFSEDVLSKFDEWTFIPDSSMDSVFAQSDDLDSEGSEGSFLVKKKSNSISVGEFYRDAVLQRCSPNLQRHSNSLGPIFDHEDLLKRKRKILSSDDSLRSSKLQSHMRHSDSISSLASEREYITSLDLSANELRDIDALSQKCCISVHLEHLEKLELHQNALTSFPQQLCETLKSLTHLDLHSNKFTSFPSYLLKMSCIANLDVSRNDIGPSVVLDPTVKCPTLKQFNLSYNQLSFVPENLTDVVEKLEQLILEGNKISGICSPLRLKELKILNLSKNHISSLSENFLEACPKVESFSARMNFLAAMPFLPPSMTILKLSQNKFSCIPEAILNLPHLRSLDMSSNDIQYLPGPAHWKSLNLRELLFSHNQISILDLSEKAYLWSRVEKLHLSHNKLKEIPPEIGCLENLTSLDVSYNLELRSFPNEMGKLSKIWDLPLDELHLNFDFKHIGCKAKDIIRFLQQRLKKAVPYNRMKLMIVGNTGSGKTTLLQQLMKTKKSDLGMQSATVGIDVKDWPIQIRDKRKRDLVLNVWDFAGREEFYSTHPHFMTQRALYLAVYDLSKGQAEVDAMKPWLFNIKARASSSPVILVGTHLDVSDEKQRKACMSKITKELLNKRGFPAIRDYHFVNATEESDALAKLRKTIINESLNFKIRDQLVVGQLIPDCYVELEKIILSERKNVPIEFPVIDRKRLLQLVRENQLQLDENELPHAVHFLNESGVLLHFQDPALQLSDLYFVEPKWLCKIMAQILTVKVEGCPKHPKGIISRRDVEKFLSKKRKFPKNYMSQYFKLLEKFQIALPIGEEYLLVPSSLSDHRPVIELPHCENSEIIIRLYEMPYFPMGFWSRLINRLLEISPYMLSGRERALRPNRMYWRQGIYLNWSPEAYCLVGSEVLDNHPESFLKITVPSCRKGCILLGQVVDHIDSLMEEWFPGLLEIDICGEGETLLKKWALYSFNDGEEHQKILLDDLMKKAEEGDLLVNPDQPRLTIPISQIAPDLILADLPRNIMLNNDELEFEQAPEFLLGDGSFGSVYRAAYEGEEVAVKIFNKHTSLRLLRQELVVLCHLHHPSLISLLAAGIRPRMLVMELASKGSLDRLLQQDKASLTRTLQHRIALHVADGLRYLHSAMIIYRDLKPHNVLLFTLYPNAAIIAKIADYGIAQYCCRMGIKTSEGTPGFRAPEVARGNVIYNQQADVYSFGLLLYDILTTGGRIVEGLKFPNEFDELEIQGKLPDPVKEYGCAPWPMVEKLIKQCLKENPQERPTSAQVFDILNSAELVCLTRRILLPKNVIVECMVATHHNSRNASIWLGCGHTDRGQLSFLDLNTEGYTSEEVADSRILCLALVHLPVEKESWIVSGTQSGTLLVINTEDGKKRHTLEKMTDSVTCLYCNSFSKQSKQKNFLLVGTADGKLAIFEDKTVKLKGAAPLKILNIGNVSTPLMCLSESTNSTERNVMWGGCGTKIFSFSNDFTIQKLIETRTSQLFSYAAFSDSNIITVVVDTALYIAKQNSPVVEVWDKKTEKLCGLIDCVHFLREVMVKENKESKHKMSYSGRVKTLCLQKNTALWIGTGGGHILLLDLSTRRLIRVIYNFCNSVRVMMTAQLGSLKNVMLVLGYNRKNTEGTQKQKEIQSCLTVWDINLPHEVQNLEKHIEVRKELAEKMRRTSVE

T1 sequence (Q5S007 970-2527): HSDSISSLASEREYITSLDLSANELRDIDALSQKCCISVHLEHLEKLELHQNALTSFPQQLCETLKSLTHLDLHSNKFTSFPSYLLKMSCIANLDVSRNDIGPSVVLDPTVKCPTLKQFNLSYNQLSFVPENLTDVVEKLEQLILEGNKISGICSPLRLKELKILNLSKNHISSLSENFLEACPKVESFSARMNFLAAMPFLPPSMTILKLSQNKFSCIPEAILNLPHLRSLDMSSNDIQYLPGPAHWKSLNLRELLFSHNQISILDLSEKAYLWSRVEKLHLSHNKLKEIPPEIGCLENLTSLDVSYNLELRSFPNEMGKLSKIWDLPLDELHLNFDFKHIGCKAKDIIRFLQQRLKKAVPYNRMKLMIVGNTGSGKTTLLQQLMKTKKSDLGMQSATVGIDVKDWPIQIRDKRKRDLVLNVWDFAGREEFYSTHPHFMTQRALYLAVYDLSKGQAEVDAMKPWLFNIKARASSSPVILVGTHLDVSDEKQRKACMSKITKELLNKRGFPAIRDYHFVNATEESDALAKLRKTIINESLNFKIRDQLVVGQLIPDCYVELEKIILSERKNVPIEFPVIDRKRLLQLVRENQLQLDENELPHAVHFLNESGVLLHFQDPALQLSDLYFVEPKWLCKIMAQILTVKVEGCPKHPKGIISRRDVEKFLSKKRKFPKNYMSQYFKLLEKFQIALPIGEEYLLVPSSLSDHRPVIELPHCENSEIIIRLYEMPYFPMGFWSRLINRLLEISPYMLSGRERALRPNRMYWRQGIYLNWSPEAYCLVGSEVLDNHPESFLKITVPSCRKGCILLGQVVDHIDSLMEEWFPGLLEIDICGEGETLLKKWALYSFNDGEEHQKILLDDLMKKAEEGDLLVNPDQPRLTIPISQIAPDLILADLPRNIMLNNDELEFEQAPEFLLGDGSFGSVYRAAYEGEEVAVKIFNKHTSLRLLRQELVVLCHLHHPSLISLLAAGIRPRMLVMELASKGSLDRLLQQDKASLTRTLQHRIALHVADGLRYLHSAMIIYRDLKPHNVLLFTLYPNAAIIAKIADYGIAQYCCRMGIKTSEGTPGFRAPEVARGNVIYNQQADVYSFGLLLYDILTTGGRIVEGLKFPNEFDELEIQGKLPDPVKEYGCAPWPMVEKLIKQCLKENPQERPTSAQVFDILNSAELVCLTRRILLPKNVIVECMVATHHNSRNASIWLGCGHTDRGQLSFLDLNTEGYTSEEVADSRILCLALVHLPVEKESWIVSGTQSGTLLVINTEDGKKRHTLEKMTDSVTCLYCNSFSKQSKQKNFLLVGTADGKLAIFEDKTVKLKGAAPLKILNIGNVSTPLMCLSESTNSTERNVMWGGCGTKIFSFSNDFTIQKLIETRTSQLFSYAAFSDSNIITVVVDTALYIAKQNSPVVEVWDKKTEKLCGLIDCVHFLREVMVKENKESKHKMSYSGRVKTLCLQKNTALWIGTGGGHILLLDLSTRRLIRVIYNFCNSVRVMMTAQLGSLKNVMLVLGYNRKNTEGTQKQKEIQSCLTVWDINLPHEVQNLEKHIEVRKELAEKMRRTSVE

| Compound | % LRRKtide phosphorylation relative to solvent [1] | Phosphorylation level relative to solvent (%) (cellular pS935 assay) (LRRK2 phospho-Ser935) | activity on LRRK2 kinase activity in vitro (in words) [1] | dephosphorylation of LRRK2 (Ser935) (LRRK2 phospho-Ser935) | Cellular pS935 (% @ 5 μM) (LRRK2 phospho-Ser935; pS935 level as % of control, 5 μM for 2 h, SH-SY5Y cells with stable expression of LRRK2) |
| --- | --- | --- | --- | --- | --- |
| N#C/C(=C(/N)SC1C=CC=CC1)c1cccc(C(O)c2ccncc2)c1 (stereo not shown) [MEK inhibitor I] | 124.71% | 100.55% | – | – | – |
| Cn1c2ccccc2c2c3c(c4c5ccccc5n(CCC#N)c4c21)CNC3=O [Gö 6976] | 5.79% | 56.41% | – | – | – |
| COc1ccc(CNC(=O)Nc2ncc([N+](=O)[O-])s2)cc1 [GSK-3b inhibitor VIII] | 128.15% | 115.21% | – | – | – |
| cFMS receptor tyrosine kinase inhibitor | 110.22% | 60.62% | – | – | – |
| Nc1nc(Nc2ccc(S(N)(=O)=O)cc2)nn1C(=O)c1c(F)cccc1F [Aurora kinase/Cdk inhibitor] | 1.21% | 45.67% | – | – | – |
| c1ccc2c(-c3ccncc3)c[nH]c2c1 [Rho kinase inhibitor III, rockout, rockout] | 32.15% | 63.04% | – | – | – |
| COc1ccc(Cl)cc1NC(=O)Nc1cc(C)nc2ccccc12 [IGF-1R inhibitor II] | 93.23% | 80.40% | – | – | – |
| Oc1cccc(-c2nc(N3CCOCC3)c3oc4ncccc4c3n2)c1 [PI-103] | 88.58% | 71.34% | – | – | – |
| COC(=O)[C@@]1(O)C[C@H]2O[C@]1(C)n1c3ccccc3c3c4c(c5c6ccccc6n2c5c31)C(=O)NC4 [K-252a, Nocardiopsis sp., K-252a] | 1.13% | 72.18% | – | – | – |
| GTP-14564 | 18.03% | 71.63% | – | – | – |
| Cl.Cl.O=S(=O)(NCCNC/C=C/c1ccc(Br)cc1)c1cccc2cnccc12 [H-89, Dihydrochloride] | 45.29% | 155.11% | – | – | – |
| CC(C)(C)n1nc(Cc2cccc3ccccc23)c2c(N)ncnc21 [PP1 analog II, 1NM-PP1, 1NM-PP1] | 44.14% | 68.59% | – | – | – |
| O=C1Nc2ccc(Cl)cc2/C1=C/c1cc(Cl)c(O)c(Cl)c1 [PKR inhibitor, negative control] | 1.07% | 72.69% | – | – | – |
| O=C1c2ccccc2-c2n[nH]c3cccc1c23 [JNK inhibitor II] | 2.32% | 81.52% | – | – | – |
| CC(C)N(CCC(=O)c1ccc2ccccc2c1)Cc1ccccc1 [JAK3 inhibitor IV] | 90.96% | 63.71% | – | – | – |
| CCCC(=O)Oc1ccc2[nH]c(C(=O)c3cc4ccccc4[nH]3)cc2c1 [PDGF receptor tyrosine kinase inhibitor II] | 93.77% | 65.41% | – | – | – |
| Cc1cc2ncc(-c3ccccc3)nc2cc1C [AG 1295] | 89.08% | 49.08% | – | – | – |
| Oc1ccc(-c2nc(-c3ccncc3)c(-c3ccc(F)cc3)[nH]2)cc1 [SB 202190] | 45.07% | 88.12% | – | – | – |
| Cc1cc(Nc2nc(-c3ccccc3)nc3ccccc23)n[nH]1 [GSK-3 inhibitor XIII] | 3.34% | 73.51% | – | – | – |
| O=c1cc(N2CCOCC2)oc2c1ccc1ccccc12 [DNA-PK inhibitor II] | 86.06% | 81.93% | – | – | – |
| O=C1Cc2c([nH]c3ccc(Br)cc23)-c2ccccc2N1 [Kenpaullone] | 47.16% | 94.10% | – | – | – |
| Cc1cccc(-c2[nH]c(C(C)(C)C)nc2-c2ccc3c(c2)OCO3)n1 [TGF-b RI inhibitor III] | 104.37% | 57.95% | – | – | – |
| N/C(=N\[N+](=O)[O-])N/N=C\c1ccc(-c2cccc([N+](=O)[O-])c2)o1 [ERK inhibitor III] | 55.32% | 90.93% | – | – | – |
| COc1ccc(S(=O)(=O)N(CCO)c2ccccc2CN(C)C/C=C/c2ccc(Cl)cc2)cc1 [KN-93] | 120.59% | 102.70% | – | – | – |
| O=C(Nc1cccc(Nc2cc(Nc3cccc(C(F)(F)F)c3)ncn2)c1)C1CC1 [EGFR inhibitor] | 64.37% | 57.76% | – | – | – |

| Compound | % LRRKtide phosphorylation relative to solvent [1] | Phosphorylation level relative to solvent (%) (cellular pS935 assay) (LRRK2 phospho-Ser935) | activity on LRRK2 kinase activity in vitro (in words) [1] | dephosphorylation of LRRK2 (Ser935) (LRRK2 phospho-Ser935) | Cellular pS935 (% @ 5 μM) (LRRK2 phospho-Ser935; pS935 level as % of control, 5 μM for 2 h, SH-SY5Y cells with stable expression of LRRK2) |
| --- | --- | --- | --- | --- | --- |
| COc1ccc2c(c1)c(C1=C(c3c[nH]c4ccccc34)C(=O)NC1=O)cn2CCCN(C)C [Gö 6983] | 3.04% | 70.11% | – | – | – |
| NC(=O)c1cccc(-c2cc(Nc3ccc(OC(F)(F)F)cc3)ncn2)c1 [Bcr-abl inhibitor] | 82.04% | 78.83% | – | – | – |
| COc1ccc(C(=O)Nc2sc3c(c2C(N)=O)CCCC3)cc1OC [Flt-3 inhibitor] | 38.91% | 63.54% | – | – | – |
| Cc1ccc(S(=O)(=O)/C=C/C#N)cc1 [BAY 11-7082] | 132.94% | 47.14% | inactive | ~ 50% | – |
| PDK1/Akt/Flt dual pathway inhibitor | 5.76% | 57.20% | – | – | – |
| CNc1cc2c(Nc3cccc(Br)c3)ncnc2cn1 [PD 158780] | 6.06% | 80.85% | – | – | – |
| Cc1nc(-c2ccccc2)c(-c2ccncc2)o1 [SC-68376] | 48.07% | 104.03% | – | – | – |
| O=C1NC(=O)C(c2c[nH]c3ccccc23)=C1c1c[nH]c2ccccc12 [Bisindolylmaleimide IV] | 3.07% | 84.51% | – | – | – |
| COc1cc2ncc(-c3ccccc3)nc2cc1OC [AG 1296] | 22.76% | 50.93% | – | – | – |
| O=C(Nc1cccc(Nc2nccc(Nc3cccc(C(F)(F)F)c3)n2)c1)C1CC1 [Aurora kinase inhibitor III] | 83.96% and 44.16% | – | inactive | ~ 50% | – |
| Indirubin-3′-monoxime | 11.18% | 85.53% | – | – | – |
| CC#CC(=O)Nc1cc2c(Nc3ccc(F)c(Cl)c3)ncnc2cn1 [EGFR/ErbB-2/ErbB-4 inhibitor] | 81.86% | 69.18% | – | – | – |
| O=C(CCCc1ccc(-c2ccccc2F)cc1)Nc1ccc(O)cc1 [MK2a inhibitor] | 123.21% | 60.73% | – | – | – |
| O=C1NC(=O)c2cc(Nc3ccc(F)cc3)c(Nc3ccc(F)cc3)cc21 [PKCbII/EGFR inhibitor] | 67.41% | 56.68% | – | – | – |
| Ic1cccc(CSc2nnc(-c3ccncc3)o2)c1 [GSK-3b inhibitor II] | 100.90% | 84.51% | – | – | – |
| c1cc(-c2cnn3cc(-c4ccc(OCCN5CCCCC5)cc4)cnc23)ccn1 [AMPK inhibitor, compound C] | 24.40% | 112.70% | – | – | – |
| Cn1nc2c3c(cccc31)C(=O)c1ccccc1-2 [JNK inhibitor, negative control] | 17.88% | 107.46% | – | – | – |
| Nc1[nH]nc2nc3ccccc3nc12 [Cdk1/5 inhibitor] | 25.04% | 123.99% | – | – | – |
| CCN(CC)C(=O)c1ccc(Nc2nc(OCC3CCCCC3)c3[nH]cnc3n2)cc1 [Cdk2 inhibitor IV, NU6140, NU6140] | 0.98% | 34.63% | – | – | – |
| O=C1c2ccccc2-[n+]2ccc3c([nH]c4ccccc43)c21 [Fascaplysin, synthetic, Fascaplysin] | 17.51% | 45.44% | – | – | – |
| C[C@@H](N)[C@H]1CC[C@H](C(=O)Nc2ccncc2)CC1 [ROCK inhibitor, Y-27632, Y-27632] | 10.36% | 69.28% | – | – | – |
| Nc1ncnc2c1cnn2-c1ccccc1 [PP3] | 68.38% | 84.67% | – | – | – |
| O=C1NC(=O)c2c1c1c3ccccc3[nH]c1c1[nH]c3cc(Br)ccc3c21 [Cdk4 inhibitor] | 6.82% | 49.88% | – | – | – |
| CN[C@@H]1C[C@H]2O[C@@](C)([C@@H]1OC)n1c3ccccc3c3c4c(c5c6ccccc6n2c5c31)C(=O)NC4 [Staurosporine, Streptomyces sp., Staurosporine] | – | – | – | – | 8.89% |
